{"source": "patent US20250345391A1", "about": "“COMPOSITIONS AND METHODS FOR THE TREATMENT OF SEPSIS” (Children's Hospital Medical Center, priority 2022, published 2025)", "format_in_all_cases": "in vivo, Male C57BL/6 mice", "key": {"[1]": {"tested_on": "STAT3", "experiment": "Western blot of STAT3 and phosphorylated forms in lung after CLP", "details": "6 h after CLP; colivelin 100 μg/kg i.p. at 1 h after CLP; vs vehicle", "source_text": "(§1) The investigation conformed to the National Institutes of Health Guide for the Care and Use of Laboratory Animals (Eighth Edition, 2011) and was approved by the Institutional Animal Care and Use Committee of the Cincinnati Children's Hospital Medical Center. Male C57BL/6 mice were obtained from Charles River Laboratories International, Inc. (Wilmington, MA). Mice were used at 3-5 months of age to mimic the equivalent for human ranges from 20-25 years (29). Male mice only were chosen for the experimentation to avoid interference from female hormonal fluctuations in sepsis responses during the estrous cycle. Mice were housed in pathogen-free conditions under a 10-h light/14-h dark cycle with free access to food and water. Mice were anesthetized with 2.0% isoflurane in 50% oxygen and polymicrobial sepsis was induced by cecal ligation and puncture (CLP) (30). After a midline laparotomy, the cecum was exteriorized, ligated and punctured twice with a 23-G needle. The cecum was then returned into the peritoneal cavity and the abdominal incision was closed. After the procedure, mice were randomly assigned to three treatment groups: a vehicle-treated group received distilled water (200 μl/mouse) intraperitoneally (i.p.); a 100 μg colivelin-treated group received the colivelin at 100 μg/kg i.p., and a 200 μg colivelin-treated group received the colivelin at 200 μg/kg i.p. at 1 h after CLP. The intraperitoneal injection was chosen to allow for a rapid uptake and bioavailability of the peptide. All groups of mice also received fluid resuscitation (35 ml/kg normal saline solution subcutaneously) immediately after, at 3 h and 12 h after the CLP procedure. To minimize pain at the surgical incision site, lidocaine hydrochloride (1%, 4 mg/kg total dose) was applied locally immediately after the procedure. […] Mice were then sacrificed at 0, 6 and 18 h after CLP. Blood, lungs, kidneys, liver, and thoracic aortas were collected for biochemical assays.\nSubcellular fractionation was performed using a centrifugation model. […] The Bradford protein assay was then used for quantitative determination of total proteins.\nCytosol content of total AMPKα1/α2 and its phosphorylated form pAMPKα1/α2 (Santa Cruz Biotechnology, Dallas, TX, USA), cytosol and nuclear content of STAT3 and its phosphorylated forms pSTAT3(Tyr705) and pSTAT3(Ser727) (Cell Signaling Technology, Danvers, MA, USA) were determined by immunoblot analyses; β-actin was concomitantly probed with mouse anti-β-actin (Santa Cruz Biotechnology) as a loading control for both cytosol and nuclear proteins. […] The immunoreaction was detected by near-infrared fluorescence. […]"}, "[2]": {"tested_on": "STAT3", "experiment": "Western blot of STAT3 and phosphorylated forms in thoracic aorta after CLP", "details": "6 h after CLP", "source_text": "as §1\nSubcellular fractionation was performed using a centrifugation model. Tissue samples of lung and thoracic aortas were homogenized in a buffer (50 mg tissue/100 μL) containing 0.32 M sucrose, 10 mM Tris-HCl (pH 7.4), 1 mM EGTA, 2 mM EDTA, 5 mM NaN3, 10 mM β-mercaptoethanol, 2 μM leupeptin, 0.15 μM pepstatin A, 0.2 mM phenylmethanesulfonyl fluoride, 50 mM NaF, 1 mM sodium orthovanadate and 0.4 nM microcystin. Samples were centrifuged at 1000×g for 10 min at 4° C. and the supernatants collected as cytosol extracts, which also contain membrane and mitochondria. The pellets were then solubilized in Triton buffer (1% Triton X-100, 250 mM NaCl, 50 mM Tris HCl at pH 7.5, 3 mM EGTA, 3 mM EDTA, 1 mM phenylme-thanesulfonyl fluoride, 0.1 mM sodium orthovanadate, 10% glycerol, 2 mM p-nitrophenyl phosphate, 0.5% NP-40 and 46 μM aprotinin). The lysates were rocked for 1 h and subsequently centrifuged at 15,000×g for 30 min at 4° C. and the supernatant collected as nuclear extracts. The Bradford protein assay was then used for quantitative determination of total proteins.\nCytosol content of total AMPKα1/α2 and its phosphorylated form pAMPKα1/α2 (Santa Cruz Biotechnology, Dallas, TX, USA), cytosol and nuclear content of STAT3 and its phosphorylated forms pSTAT3(Tyr705) and pSTAT3(Ser727) (Cell Signaling Technology, Danvers, MA, USA) were determined by immunoblot analyses; β-actin was concomitantly probed with mouse anti-β-actin (Santa Cruz Biotechnology) as a loading control for both cytosol and nuclear proteins. Extracts were heated at 70° C. in equal volumes of 4× Protein Sample Loading Buffer. Twenty-five μg of proteins were loaded per lane on a 10% Bis-Tris gel. Proteins were separated electrophoretically and transferred to nitro-cellulose membranes. The immunoreaction was detected by near-infrared fluorescence. Membranes were blocked with Odyssey blocking buffer (LI-COR Biotechnology, Lincoln, NE, USA) and incubated with primary antibodies. […]"}, "[3]": {"tested_on": "polymicrobial sepsis by cecal ligation and puncture (CLP)", "experiment": "Long-term studies of severity of sepsis (survival, severity score, body weight) up to 7 days after CLP", "source_text": "as §1\nIn a separate study, another cohort of mice was subjected to the CLP procedure and was used for assessing health and moribundity conditions, and survival rate up to 7 days. Mice were divided into two treatment groups in a blind and random fashion: a vehicle-treated group received distilled water (200 μl/mouse), and a colivelin-treated group received colivelin (100 μg/kg subcutaneously) at 1 h, 3 h and 24 h after the CLP procedure. Twelve animals were included for each group. One animal was sacrificed because of unintentional extensive damage in the small intestine during surgical procedure and was excluded from the study. The subcutaneous injection was chosen to avoid further stress in the peritoneum since the animals also received intraperitoneal treatment of antibiotics. To mimic the clinical management of antimicrobial coverage, all mice received ceftriaxone (25 mg/kg) and metronidazole (12.5 mg/kg) intraperitoneally every 12 h after CLP for three days. To minimize pain, buprenorphine (0.05 mg/kg) was administered subcutaneously at 1 h after surgery and every 12 h for three days after surgery. All groups of mice also received fluid resuscitation (35 ml/kg normal saline with 5% dextrose subcutaneously) every 24 h for all the duration of the experimental period. Although some spontaneous death occurred given the acute severity of the disease, spontaneous death was not considered as endpoint for this study for ethical reasons. […]"}, "[4]": {"details": "colivelin i.p. at 1 h after CLP, vs vehicle"}}}
{"substance": "Colivelin (SALLRSIPAPAGASRLLLLTGEIDLP)", "values": [{"measurement": "Cytosolic expression of pSTAT3(Ser727), lung", "setting": "[1]", "result": "significantly reduced"}, {"measurement": "Cytosolic expression of pSTAT3(Tyr705), lung", "setting": "[1]", "result": "significantly reduced"}, {"measurement": "Nuclear expression of pSTAT3(Ser727), lung", "setting": "[1]", "result": "lower than vehicle-treated mice, but not statistically significant"}, {"measurement": "Nuclear expression of pSTAT3(Tyr705), lung", "setting": "[1]", "result": "lower than vehicle-treated mice, but not statistically significant"}, {"measurement": "Nuclear expression of pSTAT3(Tyr705), thoracic aorta", "setting": "[2]; colivelin at the highest dose", "result": "inhibited"}, {"measurement": "Cytosolic expression of pSTAT3(Ser727), thoracic aorta", "setting": "[2]; [4]", "result": "significantly reduced"}, {"measurement": "Cytosolic expression of pSTAT3(Tyr705), thoracic aorta", "setting": "[2]; [4]", "result": "significantly reduced"}, {"measurement": "Levels of total STAT3 in the cytosol, thoracic aorta", "setting": "[2]; [4]", "result": "restored"}, {"measurement": "Levels of total STAT3 in the nucleus, thoracic aorta", "setting": "[2]; [4]", "result": "remained unchanged"}, {"measurement": "Nuclear expression of pSTAT3(Ser727), thoracic aorta", "setting": "[2]; [4]", "result": "did not affect"}, {"measurement": "Health of survivor mice (severity score) at 6 and 7 days", "setting": "[3]; 6 and 7 days after CLP, survivor mice, colivelin 100 μg/kg s.c., vs survivor vehicle-treated mice", "result": "significantly healthier"}, {"measurement": "Mice survived at 7 days", "setting": "[3]; 7 days after CLP, colivelin 100 μg/kg s.c. at 1 h, 3 h and 24 h, with antibiotics and fluids, vehicle 6 out of 12", "result": "8 out of 11"}, {"measurement": "Survival rate", "setting": "[3]; 7 days after CLP, colivelin 100 μg/kg s.c. at 1 h, 3 h and 24 h, with antibiotics and fluids, vehicle 50%, not significant", "result": 72.6, "unit": "%"}, {"measurement": "Body weight, later time points", "setting": "[3]; later than two days, up to 7 days after CLP, colivelin 100 μg/kg s.c., vs vehicle", "result": "vehicle-treated mice maintained a significant lower weight than colivelin-treated mice"}, {"measurement": "Severity of signs of sepsis (severity score), all the observation period", "setting": "[3]; up to 7 days after CLP, colivelin 100 μg/kg s.c. at 1 h, 3 h and 24 h, with antibiotics and fluids, vs vehicle", "result": "less severe signs of sepsis"}]}
